{
  "source": "patent US9345245B2",
  "about": "“Synthetic compounds for vegetative ABA responses” (THE REGENTS OF THE UNIVERSITY OF CALIFORNIA, priority 2012, dated 2016)",
  "key": {"[1]": {"tested_on": "CYP707A ABA-hydroxylating enzymes", "assay": "Growth and germination in CYP707A overexpressing and cyp707a double mutant plants", "format": "in vivo, Arabidopsis", "conditions": "40 μM", "source_text": "FIG. 12. LC66C6 sensitivity is not influenced by the CYP707A ABA-hydroxylating enzymes."}, "ABA-responsive genes": {"tested_on": "ABA-responsive genes", "assay": "Quantitative RT-PCR of ABA-responsive genes in Arabidopsis", "format": "in vivo", "description": "FIG. 9. LC66C6 induces numerous ABA-responsive genes. […] Ten-day old seedlings were treated with carrier solvent (DMSO) or either 25 μM ABA, pyrabactin or LC66C6 for 8 hours. Total RNA was then prepared labeled and hybridized to ATH1 microarrays. Data plotted are log 2 transformed average expression values for ˜13K probes that were detectable across all experiments. Data shown are averages determined from triplicate biological replicates. (C) and (D) show the expression of a reporter gene in different plant tissues after treatment with vehicle (DMSO), pyrabactin, LC66C6, or (+)-ABA.\nTotal RNA was isolated using Plant RNA purification reagent (Invitrogen, USA) according to the manufacturer's instructions. cDNA was synthesized from 1 μg of total RNA using the QantiTec reverse transcription kit (Qiagen, USA). Real-time PCR using Maxima® SYBR Green/Fluorescein qPCR Master Mix (Fermentas) was performed with the iQ5 real-time PCR detection system (Bio-Rad, Hercules, Calif.). The relative amounts of target mRNAs were determined using the relative standard curve method and were normalized by relative amount of internal control mRNA. Biological triplicate experiments were performed."}, "Arabidopsis seeds": {"tested_on": "Arabidopsis seeds", "assay": "Arabidopsis seed germination inhibition", "format": "in vivo", "conditions": "pyr1/pyl1/pyl2/pyl4 quadruple mutant; 5 μM", "description": "FIG. 5. Novel ABA agonists inhibit germination of Arabidopsis seeds more strongly than pyrabactin. (A) and (B) Comparison of seed germination inhibition by ABA agonists. (C) and (D) the effects of ABA and LC66C6 (also called quinabactin) on Arabidopsis ABA signaling- and biosynthesis-deficient mutants on germination (C) and seedling establishment (D). Seeds were sown on ½×MS agar plate containing chemicals, and were stored at 4° C. for 4 days, then transferred at 22±2° C. Photographs (A and C) and germination (B) or green cotyledon (D) scores were assessed after a 4-day incubation under continuous illumination. […] For Arabidopsis germination and hypocotyl growth inhibition analysis, seeds after-ripened about 4 weeks were surface-sterilized with a solution containing 5% NaClO and 0.05% Tween-20 for 10 minutes, and rinsed with water four times. Sterilized seeds were suspended with 0.1% agar and sowed on the 0.8% solidified agar medium containing ½ Murashige and Skoog (MS) salts (Sigma-Aldrich) in the presence of chemicals and were stored at 4° C. for 4 days, then transferred at 22° C. under the dark or light. Germination was determined after a 4-day incubation, whereas hypocotyl growth was photographed after 6-day incubation."}, "Chlamydomonas": {"tested_on": "Chlamydomonas", "assay": "Colony growth of Chlamydomonas with and without salinity and osmotic stress", "format": "in vivo", "conditions": "with and without salinity and osmotic stress", "description": "FIG. 17. The effect of ABA and its agonists in Physcomitrella patens and Chlamydomonas. Protonemal growth images (A) and quantitative analysis (B) of the effects of ABA and agonists on Phsycomitrella patens. Protonema were grown on 200 μM of specific test chemical for 10 days. […] Pyrabactin bleached protonema. (C) The expression of ABA-responsive genes of Physcomitrella patens. Protonema were treated with 200 μM chemical solutions for 3 h. (D) Colony growth of Chlamydomonas on the chemical with salinity stress and osmotic stress. There was no effect of ABA and LC66C6 on the Chlamydomonas growth with and without stresses."}, "PYR/PYL receptors": {"tested_on": "PYR/PYL receptors", "assay": "Receptor-mediated PP2C inhibition assay, all ABA receptors tested", "format": "biochemical, Arabidopsis", "conditions": "10 μM; in the presence of all ABA receptors tested", "description": "HAB1 and PYL proteins were expressed and purified as described previously (Park S Y, et al. (2009) Abscisic Acid Inhibits Type 2C Protein Phosphatases via the PYR/PYL Family of START Proteins. Science 324(5930):1068-1071), with minor modifications. To obtain GST-HAB1, -ABI1 and -ABI2 fusion proteins, the HAB1 cDNA was cloned into pGex-2T whereas ABI1 and ABI2 cDNAs were cloned into the vector pGex-4T-1. Expression was conducted in BL21[DE3]pLysS host cells. Transformed cells were pre-cultured overnight, transferred to LB medium and cultured at 30° C. to culture A600 of 0.5. The culture was then cooled on ice and MnCl2 added to 4 mM and IPTG added to 0.3 mM. After 16 hours incubation at 15° C., cells were harvested and recombinant proteins were purified on glutathione agarose as described previously (Park S Y, et al. (2009). To obtain 6×His-PYL receptor fusion proteins, receptor cDNAs for all 13 ABA receptors were cloned into the vector pET28 and expressed and purified as described previously (Mosquna A, et al. (2011) Potent and selective activation of abscisic acid receptors in vivo by mutational stabilization of their agonist-bound conformation. PNAS 108(51):20838-20843); this yielded soluble and functional protein (assessed using receptor-mediated PP2C inhibition assays) for all receptors except PYL7, PYL11 and PYL12. […]"}},
  "data": [
    {"smiles": "CC1=CC(=O)CC(C)(C)C1(O)/C=C/C(C)=C\\C(=O)O", "note": "(single isomer, unassigned; (+)) [(+)-ABA, Abscisic acid]", "values": [
      {"measurement": "inhibition of plant growth and germination in plants that overexpress CYP707A", "setting": "[1]; CYP707AOX vs wild-type", "result": "reduced"},
      {"measurement": "inhibition of plant growth and germination in cyp707a double mutant", "setting": "[1]; cyp707a double mutant vs wild-type", "result": "enhanced"},
      {"measurement": "induction of MAPKKK18, RD29A, and RD29B mRNAs", "setting": "ABA-responsive genes; Col and Ler ecotypes and pyr1, pyl1, ply2, pyl3 and pyl4 single mutants", "result": "induced"},
      {"measurement": "expression of ABF3, GBF3, NCED3, and RD29A", "setting": "ABA-responsive genes; Col wild-type plants", "result": "induced expression of ABF3, GBF3, NCED3, and RD29A in a dose dependent manner"},
      {"measurement": "expression of ABF3, GBF3, NCED3, and RD29A", "setting": "ABA-responsive genes; abi1-1 and PYR/PYL quadruple mutant plants", "result": "induction levels were impaired"},
      {"measurement": "inhibition of germination in quadruple mutant", "setting": "Arabidopsis seeds", "result": "inhibit germination in the quadruple mutant"},
      {"measurement": "effect on growth of Chlamydomonas", "setting": "Chlamydomonas", "result": "no effect"},
      {"measurement": "PPC2 enzyme activity of HBA1, ABI1, and ABI2 inhibited", "setting": "PYR/PYL receptors", "result": "> 90", "unit": "%"}
    ]}
  ]
}
